Patent US11142546B2, “Neuropeptide S receptor (NPSR) agonists” (Research Triangle Institute, priority 2016, dated 2021)

Biological target: T1, NPSR-C-Alt (Homo sapiens, UniProt Q6W5P4)
T1 sequence (Q6W5P4 1-377 isoform Q6W5P4-4): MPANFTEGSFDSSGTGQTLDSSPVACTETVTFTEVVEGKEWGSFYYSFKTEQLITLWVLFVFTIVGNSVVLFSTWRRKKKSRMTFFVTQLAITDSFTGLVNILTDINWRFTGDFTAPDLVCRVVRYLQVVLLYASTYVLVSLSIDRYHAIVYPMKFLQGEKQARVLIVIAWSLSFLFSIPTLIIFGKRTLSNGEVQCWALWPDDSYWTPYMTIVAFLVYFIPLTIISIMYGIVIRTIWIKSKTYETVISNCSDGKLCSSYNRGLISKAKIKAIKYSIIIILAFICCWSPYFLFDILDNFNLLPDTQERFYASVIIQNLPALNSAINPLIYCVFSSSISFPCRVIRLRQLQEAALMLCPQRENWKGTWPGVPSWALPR
Experiment: Functional assay of NPS receptor isoforms
Assay type: cell-based
Conditions: least potent at NPSR-C-Alt
Procedure: The neuropeptide S receptor has at least three known isoforms including the wild type NPS Asn^107, the NPS Asn107Ile and NPS C-Alt. Since each variant could potentially have functional difference, the agonist sensitivity of each isoform was evaluated.

Compound	potency at NPSR-C-Alt, fold lower versus the 107I variant
hNPS: Human neuropeptide S, 20 residue peptide with the primary sequence SFRNGVGTGMKKTSFQRAKS (SEQ ID NO: 1) (Human)	30 fold

Biological target: T2, human NPS receptor variants (NPS Ile107 and Asn107) (Homo sapiens, UniProt Q6W5P4)
T2 sequence (Q6W5P4 1-371 N107I): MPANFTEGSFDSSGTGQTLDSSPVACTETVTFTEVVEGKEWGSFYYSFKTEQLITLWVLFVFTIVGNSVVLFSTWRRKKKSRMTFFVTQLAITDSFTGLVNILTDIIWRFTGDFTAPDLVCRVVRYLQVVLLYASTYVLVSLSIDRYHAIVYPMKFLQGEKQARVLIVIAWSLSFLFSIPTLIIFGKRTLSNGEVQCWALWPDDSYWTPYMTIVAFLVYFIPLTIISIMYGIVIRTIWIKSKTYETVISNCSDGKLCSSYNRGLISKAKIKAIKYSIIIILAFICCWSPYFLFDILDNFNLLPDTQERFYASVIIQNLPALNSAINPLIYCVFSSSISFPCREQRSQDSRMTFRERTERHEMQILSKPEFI
Experiment: Functional determination of EC50 by calcium mobilization in RD-HGA16 CHO cells overexpressing the NPS receptor
Assay type: cell-based
Conditions: FlexStation, mean of at least three independent experiments, receptor variant not given
Text: Functional Determinations of EC50: Identification of functional agonists at the NPS receptor was done utilizing RD-HGA16 cells (Molecular Devices), a Chinese Hamster Ovary cell line stably expressing the promiscuous Gq-protein Gα16. RD-HGA16 cells were engineered to stably overexpress the NPS receptor. Two individual cell lines were created that stably express one of two human NPS receptor variants (NPS Ile107 and Asn107). Cells were loaded with a calcium sensitive dye (Molecular Devices) for 1 h at 370 C and compounds were assayed in separate experiments for intrinsic activity as measured by increased fluorescence intensity as a marker of mobilization of internal calcium stores using a FlexStation fluorescence plate reader. Compounds were run as 8-point full log or half log concentration curves in duplicate in order to determine the EC50 of the test compound. Each compound was tested in at least three independent experiments. A three-parameter logistic equation was fit to the concentration response data with Prism Software (v5 for Windows, GraphPad Software; San Diego, Calif.) to calculate the EC50 values. The data represent the mean±SEM from at least three independent experiments. Table 1 lists the EC50 for certain compounds of Formula I or Formula II.

EC50	Compound
2110 nM	NC(=O)[C@H]1CCCC[C@@H]1NC(=O)CNC(=O)/C=C/c1ccccc1 (racemic) [Compound R06039-655, (1R/S,2S/R)-2-(2-cinnamamidoacetamido)cyclohexanecarboxamide]
1020 nM	NC(=O)[C@H]1CCCC[C@@H]1NC(=O)CNC(=O)C(Cc1ccccc1)Cc1ccccc1 (racemic) [Compound R06039-656, (1R/S,2S/R)-2-(2-(2-benzyl-3-phenylpropanamido)acetamido)cyclohexanecarboxamide]
213 nM	NC(=O)[C@@H]1CCCC[C@H]1NC(=O)CNC(=O)/C(=C/c1ccccc1)CCc1ccccc1 (relative stereo) [Compound R06039-675, Trans-2-(2-((E)-2-Benzylidene-4-phenylbutanamido)acetamido)cyclohexanecarboxamide]
894 nM	NC(=O)[C@@H]1CCCC[C@H]1NC(=O)CNC(=O)C(CCC1CCCCC1)Cc1ccccc1 (relative stereo) [Compound R06039-682, Trans-2-(2-(2-Benzyl-4-cyclohexylbutanamido)acetamido)cyclohexanecarboxamide]
94 nM	NC(=O)[C@H]1CCCC[C@@H]1OC(=O)CNC(=O)[C@H](Cc1ccccc1)NC(=O)c1ccccc1 [Compound R06039-636, (1S,2S)-2-carbamoylcyclohexyl-2-[(2S)-3-phenyl-2-(phenylformamido)propanamido]acetate]
169 nM	NC(=O)[C@@H]1CCCC[C@H]1NC(=O)CNC(=O)[C@H](Cc1ccccc1)OCc1ccccc1 [Compound R06039-641, Trans-2-(2-((S)-2-(benzyloxy)-3-phenylpropanamido)acetamido)cyclohexanecarboxamide]
901 nM	NC(=O)[C@H]1CCCC[C@@H]1NC(=O)CNC(=O)C(Cc1ccccc1)c1ccccc1 (some centres unmarked) [Compound R06039-657, (1R/S,2S/R)-2-(2-(2,3-diphenylpropanamido)acetamido)cyclohexanecarboxamide]
93 nM	NC(=O)C1C2CCC(CC2)C1NC(=O)CNC(=O)C(CCc1ccccc1)Cc1ccccc1 (centres unmarked) [Compound R06039-691, 3-[2-(2-Benzyl-4-phenylbutanamido)acetamido]bicyclo[2.2.2]octane-2-carboxamide]
77 nM	NCCCC[C@H](NC(=O)C(CCc1ccccc1)Cc1ccccc1)C(=O)NC1CCCCC1C(N)=O (stereo partly drawn) [Compound R06039-693, 2-[(2S)-6-amino-2-(2-benzyl-4-phenylbutanamido)hexanamido]cyclohexane-1-carboxamide]
91 nM	NCCCC[C@H](NC(=O)C(CCc1ccccc1)Cc1ccccc1)C(=O)NC1C2CCC(CC2)C1C(N)=O (stereo partly drawn) [Compound R06039-696, 3-[(2S)-6-amino-2-(2-benzyl-4-phenylbutanamido)hexanamido]bicyclo[2.2.2]octane-2-carboxamide]
